Values of other authors as cited in patent US7659300B2, “Monocyclic anilide spirolactam CGRP receptor antagonists” (Merck Sharp & Dohme Corp., priority 2004, dated 2010).
No end group written: not given here.

Assays:
middle meningeal artery = details: rats, electrical stimulation of the dura mater, prior administration (Williamson et al. 1997)
facial blood flow [1] = details: rat, trigeminal ganglion stimulation (Escott et al. 1995)
facial blood flow [2] = details: marmoset, electrical stimulation of the trigeminal ganglion (Doods et al. 2000)
migraine = details: clinical studies, intravenously administered (Olesen et al. 2004)

| Molecule | increase of the diameter of the middle meningeal artery (middle meningeal artery) | increase of facial blood flow (facial blood flow [1]) | increase in facial blood flow (facial blood flow [2]) | acute treatment of migraine (migraine) |
| --- | --- | --- | --- | --- |
| CGRP(8-37): a peptide CGRP antagonist; fragment of CGRP that lacks seven N-terminal amino acid residues (VTHRLAGLLSRSGGVVKNNFVPTNVGSKAF; ends and bridges not checked; UniProt P06881 90-119, looked up, fragment) | blocked | inhibited | – | – |
| NCCCC[C@H](NC(=O)[C@@H](Cc1cc(Br)c(O)c(Br)c1)NC(=O)N1CCC(N2Cc3ccccc3NC2=O)CC1)C(=O)N1CCN(c2ccncc2)CC1 [BIBN4096BS] | – | – | blocked | safe and effective acute treatment for migraine |
